Patent US7662842B2, “Thiazolidinone amides, thiazolidine carboxylic acid amides, and serine amides, including polyamine conjugates thereof, as selective anti-cancer agents” (Ohio State Univesity Research Foundation, priority 2003, dated 2010)
pIC50: −log10 of the molar value.

Columns and labels:
[1] = system: RH7777 rat hepatoma cells; test: SRB cytotoxicity assay, RH7777 control cell line; format: cell-based; conditions: for pIC50: Rattus norvegicus, RH7777, SRB assay, 96 h exposure, control cell line
Method: (§1) For in vitro cytotoxicity screening, 1000 to 5000 cells were plated into each well of 96-well plates depending on growth rate, and exposed to different concentrations of a test compound for 96 h in three to five replicates. All the compounds were dissolved in dimethyl sulfoxide at 5 to 20 mM, and diluted to desired concentrations in complete culture medium. Cell numbers at the end of the drug treatment were measured by the SRB assay (Gududuru et al., “Synthesis and Biological Evaluation of Novel Cytotoxic Phospholipids for Prostate Cancer,” Bioorg. Med. Chem. Lett. 14:4919-4923 (2004); Rubinstein et al., “Comparison of in vitro Anticancer-Drug-Screening Data Generated with a Tetrazolium Assay Versus a Protein Assay Against a Diverse Panel of Human Tumor Cell Lines,” J. Natl. Cancer Inst. 82:1113-1118 (1990), each of which is hereby incorporated by reference in its entirety). Briefly, the cells were fixed with 10% of trichloroacetic acid, stained with 0.4% SRB, and the absorbances at 540 nm was measured using a plate reader (DYNEX Technologies, Chantilly, Va.). […] A sandwich ELISA (Roche, Mannheim, Germany) utilizing monoclonal antibodies specific for DNA and histones was used to quantify degree of apoptosis induced by the analogs after 72 h exposure. This assay measures DNA-histone complexes (mono- and oligonucleosomes) released into cytoplasm from the nucleus during apoptosis.

[2] = system: DU-145 human prostate cancer cells; test: SRB cytotoxicity assay, DU-145; format: cell-based; conditions: Homo sapiens, DU-145, read-out: IC50 DU-145, 96 h exposure, prostate cancer cell line
Method: as §1

[3] = system: PC-3 human prostate cancer cells; test: SRB cytotoxicity assay, PC-3; format: cell-based; conditions: Homo sapiens, 96 h exposure, prostate cancer cell line
Method: as §1

[4] = system: LNCaP human prostate cancer cells; test: SRB cytotoxicity assay, LNCaP; format: cell-based; conditions: Homo sapiens, LNCaP, 96 h exposure, prostate cancer cell line
Method: as §1

[5] = system: PPC-1 human prostate cancer cells; test: SRB cytotoxicity assay, PPC-1; format: cell-based; conditions: Homo sapiens, PPC-1, 96 h exposure, prostate cancer cell line
Method: (§2) Dr. Mitchell Steiner at University of Tennessee Health Science Center, kindly provided PPC-1 and TSU-Pr1 cells.
as §1

[6] = system: TSU-Pr1 human prostate cancer cells; test: SRB cytotoxicity assay, TSU-Pr1; format: cell-based; conditions: Homo sapiens, TSU-Pr1, 96 h exposure, prostate cancer cell line
Method: as §2, §1

[7] = system: CaOv-3 human ovarian cancer cell line; test: SRB cytotoxicity assay, CaOv-3; format: cell-based
Method: (§3) For in vitro cytotoxicity screening, 1000 to 5000 cells were plated into each well of 96-well plates depending on growth rate, and exposed to different concentrations of a test compound for 96 h in three to five replicates. All the compounds were dissolved in dimethyl sulfoxide at 5 to 20 mM, and diluted to desired concentrations in complete culture medium. Cell numbers at the end of the drug treatment were measured by the SRB assay (Gududuru et al., “Synthesis and Biological Evaluation of Novel Cytotoxic Phospholipids for Prostate Cancer,” Bioorg. Med. Chem. Lett. 14:4919-4923 (2004); Rubinstein et al., “Comparison of in vitro Anticancer-Drug-Screening Data Generated with a Tetrazolium Assay Versus a Protein Assay Against a Diverse Panel of Human Tumor Cell Lines,” J. Natl. Cancer Inst. 82:1113-1118 (1990), each of which is hereby incorporated by reference in its entirety). Briefly, the cells were fixed with 10% of trichloroacetic acid, stained with 0.4% SRB, and the absorbances at 540 nm was measured using a plate reader (DYNEX Technologies, Chantilly, Va.). […] A sandwich ELISA (Roche, Mannheim, Germany) utilizing monoclonal antibodies specific for DNA and histones was used to quantify degree of apoptosis induced by the analogs after 72 h exposure. This assay measures DNA-histone complexes (mono- and oligonucleosomes) released into cytoplasm from the nucleus during apoptosis. RH7777 cells were employed because of nonspecific cytotoxicity of compound 4 in receptor-negative cells as well as receptor-positive prostate cancer cells.
(§4) In vitro cytotoxicity assay was performed by the same sulforhodamine B (SRB) assay (described above). The compounds shown in Table 8 below where tested for activity against the breast cancer and ovarian cancer cell lines.

[8] = system: OVCAR-3 human ovarian cancer cell line; test: SRB cytotoxicity assay, OVCAR-3; format: cell-based
Method: as §3, §4

[9] = system: SKOv-3 human ovarian cancer cell line; test: SRB cytotoxicity assay, SKOv-3; format: cell-based; conditions: SK-OV-3
Method: as §3, §4

[10] = system: SKMEL-188 melanoma cells; test: Sulforhodamine B assay in melanoma cells, SKMEL-188; format: cell-based; conditions: SK-MEL-188, 48 h, SRB assay, 48 h incubation; melanoma cell line
Method: (§5) SKMEL-188 cells were cultured in Ham's F10 medium (Gibco Invitrogen, Inc., Grand Island, N.Y.) plus 5% fetal bovine serum (Cellgro Mediatech, Inc., Herndon, Va.) and 1% antibiotic/antimycotic mixture (Sigma-Aldrich, Inc., St. Louis, Mo.). WM-164 cells (gift of Dr. Meenhard Herlyn, Wistar Inst., Philadelphia, Pa.) and human dermal fibroblasts (Cascade Biologics, Inc., Portland, Oreg.) were cultured in DMEM medium (Cellgro Mediatech, Inc.) supplemented with 5% fetal bovine serum, 1% antibiotic.antimycotic mixture and bovine insulin ([…], Sigma-Aldrich, Inc.). Human dermal fibroblasts were used as a control to examine the effects of compounds on stromal environment. Thus, the effect of the various compounds on melanoma cells versus fibroblasts would document their potential selectivity.
(§6) Sulforhodamine B Assay: Cells were seeded into 96-well plates at 5000 cells/well. After 12 hours, media were changed and serial dilutions of compounds were added. Cells were incubated with each compound for 48 hours. Fresh media containing the test compound were changed ever 24 hours. Thereafter, total cell protein corresponding to cell numbers (both viable and non-viable cells) were measured using the sulforhodamine B (SRB) assay according to manufacturer's protocol (Sigma-Aldrich, Inc.) (Rubinstein et al., “Comparison of in vitro Anticancer Drug-screening Data Generated with a Tetrazolium Assay Versus a Protein Assay Against a Diverse Panel of Human Tumor Cell Lines,” J. Natl. Cancer Inst. 82:1113-1118 (1990); Dothager et al., “Synthesis and Identification of Small Molecules that Potently Induce Apoptosis in Melanoma Cells Through GI Cell Cycle Arrest,” J. Am. Chem. Soc. 127:8686-8696 (2005), each of which is hereby incorporated by reference in its entirety). Briefly, cells were fixed with trichloracetic acid, washed and incubated with sulforhodamine B for 30 minutes. After another wash, dye incorporated into the cells was solubilized and measured using a plate reader at 565 nm.
(§7) Statistical Analysis: Data is presented as mean±SEM (n=6-8). […] Statistical analyses were performed with Student's t-test (*p<0.05; **p<0.005).
(§8) DTIC and Taxol were assayed in the same way for comparison and served as internal quality controls in the different batches of assay. For comparison, the activities of 5R and 5S were measured.

[11] = system: WM-164 cells; test: Sulforhodamine B assay in melanoma cells, WM-164; format: cell-based; conditions: Homo sapiens, WM164, read-out: IC50 WM-164; SRB assay, 48 h incubation; melanoma cell line
Method: as §5, §6, §7, §8

[12] = system: human dermal fibroblasts; test: Sulforhodamine B assay, fibroblast control cells; format: cell-based; conditions: Homo sapiens, Fibroblast, 48 h, SRB assay, 48 h incubation
Method: as §5, §6, §7, §8

[13] = system: PC-3 cells; test: Apoptosis sandwich ELISA (DNA-histone complex), PC-3; format: cell-based, human
Method: as §3
(§9) From the LPL receptor mRNA expression studies (Table 2), it was evident that these cell lines serve as an excellent model system to explore the effects of LPL receptor. Given the structural similarity of SAPs to ceramide (and the known ability of ceramide to induce apoptosis), it was then determined whether the antiproliferative effects of thiazolidine analogs were mediated via apoptotic events. The ability of the analogs to induce apoptosis in LNCaP, PC-3, and RH7777 cells was examined using a quantitative sandwich ELISA that measures DNA-histone complex released during apoptosis. The enrichment factor calculated (as ratio of OD405 in treated and un-treated cells) provides a quantitative assessment of the degree of apoptosis induced. Initially, only two compounds (4 & 5) were used for this study. Apoptotic activity of analog (compound 4) was selective in prostate cancer cells despite nonselective cytotoxicity in RH7777 negative control cells (see Table 5 below). Analog compound 5 induced apoptosis in PC-3 and LNCaP cells, but to a lesser extent in PC-3 cells perhaps due to lower potency in this cell line.

[14] = system: LNCaP cells; test: Apoptosis sandwich ELISA (DNA-histone complex), LNCaP; format: cell-based, human
Method: as §3, §9

[15] = system: SKMEL-188 and WM-164 cell lines; test: SRB assay, statements on both melanoma cell lines; format: cell-based
Method: Louis, Mo.). WM-164 cells (gift of Dr. Meenhard Herlyn, Wistar Inst., Philadelphia, Pa.) and human dermal fibroblasts (Cascade Biologics, Inc., Portland, Oreg.) were cultured in DMEM medium (Cellgro Mediatech, Inc.) supplemented with 5% fetal bovine serum, 1% antibiotic.antimycotic mixture and bovine insulin ([…], Sigma-Aldrich, Inc.). Human dermal fibroblasts were used as a control to examine the effects of compounds on stromal environment. Thus, the effect of the various compounds on melanoma cells versus fibroblasts would document their potential selectivity. Sulforhodamine B Assay: Cells were seeded into 96-well plates at 5000 cells/well. After 12 hours, media were changed and serial dilutions of compounds were added. Cells were incubated with each compound for 48 hours. Fresh media containing the test compound were changed ever 24 hours. Thereafter, total cell protein corresponding to cell numbers (both viable and non-viable cells) were measured using the sulforhodamine B (SRB) assay according to manufacturer's protocol (Sigma-Aldrich, Inc.) (Rubinstein et al., “Comparison of in vitro Anticancer Drug-screening Data Generated with a Tetrazolium Assay Versus a Protein Assay Against a Diverse Panel of Human Tumor Cell Lines,” J. Natl. Cancer Inst. 82:1113-1118 (1990); Dothager et al., “Synthesis and Identification of Small Molecules that Potently Induce Apoptosis in Melanoma Cells Through GI Cell Cycle Arrest,” J. Am. Chem. Soc. 127:8686-8696 (2005), each of which is hereby incorporated by reference in its entirety). Briefly, cells were fixed with trichloracetic acid, washed and incubated with sulforhodamine B for 30 minutes. After another wash, dye incorporated into the cells was solubilized and measured using a plate reader at 565 nm. Statistical Analysis: Data is presented as mean±SEM (n=6-8). […] Statistical analyses were performed with Student's t-test (*p<0.05; **p<0.005). […] DTIC and Taxol were assayed in the same way for comparison and served as internal quality controls in the different batches of assay. For comparison, the activities of 5R and 5S were measured.

| SMILES | pIC50 [1] | pIC50 [2] | pIC50 [3] | pIC50 [4] | pIC50 [5] | pIC50 [6] | pIC50 [7] | pIC50 [8] | pIC50 [9] | pIC50 [10] | pIC50 [11] | pIC50 [12] | further results |
| --- | --- | --- | --- | --- | --- | --- | --- | --- | --- | --- | --- | --- | --- |
| CCCCCCCCCCCCCCCCCCNC(=O)[C@@H]1CSC(c2cccc(O)c2)N1 (mixture of isomers) [Compound 14, (2RS, 4R)-2-(3-Hydroxy-phenyl)-thiazolidine-4-carboxylic acid octadecylamide] | 4.51 | 5.24 | 5.17 | 5.77 | 5.92 | 5.40 | 4.74 | 5.09 | 4.96 | – | – | – | melting point: 50 °C |
| CCCCCCCCCCCCCCCCCCNC(=O)[C@H]1CSC(c2ccccc2)N1 (stereo partly drawn) [5(S), (4S)—N-octadecyl-2-phenylthiazolidine-4-carboxamide] | – | – | – | – | – | – | – | – | – | 4.62 | 4.74 | 4.56 | Apoptosis enrichment factor (ratio of OD405 in treated and un-treated cells), PC-3 ([13]; 2 μM for 72 h): 1.1; Apoptosis enrichment factor (ratio of OD405 in treated and un-treated cells), PC-3 ([13]; 5 μM for 72 h): 1.2; Apoptosis enrichment factor (ratio of OD405 in treated and un-treated cells), PC-3 ([13]; 10 μM for 72 h): 1.4; Apoptosis enrichment factor (ratio of OD405 in treated and un-treated cells), PC-3 ([13]; 20 μM for 72 h): 2.7; Apoptosis enrichment factor (ratio of OD405 in treated and un-treated cells), LNCaP ([14]; 2 μM for 72 h): 3.1; Apoptosis enrichment factor (ratio of OD405 in treated and un-treated cells), LNCaP ([14]; 5 μM for 72 h): 5.4; Apoptosis enrichment factor (ratio of OD405 in treated and un-treated cells), LNCaP ([14]; 10 μM for 72 h): 25.8; Apoptosis enrichment factor (ratio of OD405 in treated and un-treated cells), LNCaP ([14]; 20 μM for 72 h): 46.8; Induction of apoptosis in LNCaP and PC-3 cells ([14]; LNCaP and PC-3 cells, lesser extent in PC-3): significantly induced apoptosis |
| CCCCCCCCCCCCCCCCCCNC(=O)C1CSC(c2ccoc2)N1 (stereo not drawn) [Compound 12, 2-(furan-3-yl)-N-octadecylthiazolidine-4-carboxamide] | 4.98 | 5.18 | 5.09 | 5.77 | 5.96 | 5.38 | 5.11 | 5.64 | 5.27 | – | – | – | Fold less selective against RH7777 cell line than compound 5 ([1]; relative to compound 5): 3 fold |
| CN(C)/N=N/c1[nH]cnc1C(N)=O [DTIC, dacarbazine, reference compound] | – | – | – | – | – | – | – | – | – | < 4.00 | < 4.00 | – | pIC50 ([15]; 48 h, read-out: IC50 against both melanoma cell lines): < 4.00 |
| CC(=O)O[C@H]1C(=O)[C@@]2(C)[C@H]([C@H](OC(=O)c3ccccc3)[C@]3(O)C[C@H](OC(=O)[C@H](O)[C@@H](NC(=O)c4ccccc4)c4ccccc4)C(C)=C1C3(C)C)[C@]1(OC(C)=O)CO[C@@H]1C[C@@H]2O [Taxol, reference compound] | – | – | – | – | – | – | – | – | – | 5.42 | 5.21 | < 5.00 | Killing of melanoma cells (cytostatic versus cytotoxic) ([15]; higher concentrations): not effective in killing the cells |
